What was measured:
[1] = test system: GFP-wt-CFTR; assay: Image Correlation Spectroscopy of GFP-wt-CFTR aggregation at the plasma membrane; format: cell-based, human; details: for CFTR clustering / platforms (degree of aggregation) at the plasma membrane: primary human bronchial epithelial cells, fenretinide 1.25 μM 24 h pretreatment, Thaps 2 μM 10-20 min
Experimental: FIGS. 3A-E are confocal images of GFP-wt-CFTR expressed at the plasma membrane of pHBE cells under control conditions (Ctr) (FIG. 3A); after 10-20 min treatment with 2 μM Thapsigargin (FIG. 3B); after treatment with 1.25 μM Fenretinide (FIG. 3C); after treatment with 1.25 μM Fenretinide and Thapsigargin (same conditions as above) (FIG. 3D); or after treatment with 1.25 μM Fenretinide+Thapsigargin (same conditions as above)+Amitriptyline (13 μM for 40 min) (FIG. 3E).
FIG. 3F is a graph showing the quantification of CFTR aggregation and accumulation at the cell surface under control conditions (Ctr), after treatment with Thapsigargin (Thaps), after treatment with Fenretinide (Fen), and after treatment with Fenretinide and Thapsigargin (Fen+Thaps).
It was next tested whether fenretinide and/or zinc could have an effect on the ability of native CFTR-expressing epithelial cells to transport chloride. CFTR is known to become localized in relatively stable platforms during viral infection (Abu-Arish et al., 2015). The formation of such platforms expressing CFTR was measured following treatment with fenretinide. The Image Correlation Spectroscopy technique was used to measure the degree of aggregation of GFP-wt-CFTR at the plasma membrane of primary human bronchial epithelial cells. The degree of aggregation is proportional to the mean number of CFTR channels per cluster or platform. Confocal images of CFTR at the plasma membrane were collected for analysis under control (Ctr), thapsigargin (Thaps), fenretinide (Fen) or a combination of Fen+Thaps. Cells were pretreated or not with fenretinide at 1.25 μM for 24 h before imaging whereas Thaps (2 μM) exposures were acute (10-20 min).

[2] = test system: cytoplasmic phospholipases (cPLA2); assay: cPLA2 activity in lung epithelial cells (commercial kit); format: cell-based, human
Experimental: FIG. 1 is a graph showing the effect of fenretinide and Zn^2+ treatment on the activity of cytoplasmic phospholipases (cPLA2). Lung epithelial cells were treated with 1.25 μM fenretinide (Fen) and/or 12.5 μM zinc sulfate (Zn^2+) for 12, 24, 48 or 72 hours and the activity of PLA2 was assessed using a commercially available ELISA kit (Abcam, cat. No. ab133090). All statistical analyses were performed using GraphPad™ software (GraphPad, San Diego, Calif., USA). Statistical significance of differences was evaluated using unpaired t-test with Welch's correction. Data are represented as means±SD (*p 0.05, **p 0.01, ***p 0.001, ****p 0.0001). All experiments were done in triplicates (n=3).
The effect of fenretinide (Fen) and/or zinc (Zn^2+) ions on the lipid metabolism in human airway epithelial cells was assessed the modulation of cytoplasmic phospholipases (cPLA2) activity. cPLA2 activity, as evaluated by colorimetric assay, was decreased following fenretinide treatment in a time dependent fashion, starting 24h after treatment (FIG. 1).

[3] = test system: airway epithelial cells overexpressing the delF508 mutated form of CFTR (delF508/delF508); assay: DHA and AA fatty acid levels in airway epithelial cells overexpressing delF508 CFTR; format: cell-based, human; details: 72h, relative to untreated cells; for DHA levels: 1.25 μM fenretinide and/or 12.5 μM zinc sulfate
Experimental: FIGS. 2A-C are graphs showing the effect of fenretinide, Zn^2+ treatment on the level of DHA (FIG. 2A), AA (FIG. 2B) and their ratio (FIG. 2C) in lung epithelial cells overexpressing a mutant form of CFTR (CFTR-delF508) or native CFTR (wt CFTR). Lung epithelial cells grown as 80% confluent monolayer of were treated for 72h with 1.25 μM fenretinide and/or 12.5 μM zinc sulfate. The levels of AA and DHA were assessed as previously described in Guilbault et al. 2008, 2009. All statistical analyses were performed using GraphPad™ software (GraphPad, San Diego, Calif., USA). Statistical significance of differences was evaluated using unpaired t-test with Welch's correction. Data are represented as means±SD (*p≤0.05, **p≤0.01, ***p≤0.001, ****p≤0.0001). All experiments were done in triplicates (n=3).
It was next assessed whether fenretinide and zinc modulate the levels of omega-3 (docosahexaenoic acid, DHA) and omega-6 (arachidonic acid, AA) fatty acids in airway epithelial cells overexpressing the delF508 mutated form of CFTR (delF508/delF508) or native CFTR (wt CFTR). […] For AA levels, all treatments led to a significant decrease in AA levels in delF508 CFTR-expressing cells (relative to untreated cells), but not in native CFTR-expressing cells.

[4] = biological target: T1, F508del-CFTR (Homo sapiens, UniProt P13569, DEL508-508); assay: Ussing chamber F508del-CFTR conductance across basally permeabilized polarized cells; format: cell-based; details: 1.25 μM Fen alone for 3 days, 1 μM VX-809 last 24h
T1 construct: host or cells: polarized bronchial epithelial cells
Experimental: FIG. 5 is a graph showing the effect of Zinc and/or Fenretinide treatment on F508del-CFTR function after partial rescue by VX-809 (809) in the absence and presence of 50 μM of the potentiator genistein (acts similarly to VX770). Ussing Chambers were used to measure F508del-CFTR conductance by measuring the short-circuit current across basally permeabilized polarized cells in response to forskolin (FSK) or forskolin+genistein (FSK+Gen). Treatment: Cells were treated basally or not with 1.25 μM fenretinide (Fen) or the combination a combination of 1.25 μM Fenretinide and 12.5 μM Zinc (FenZn) for 3 days. 1 μM VX-809 was added bilaterally during the last 24h. Unpaired student t-test was used for statistical analysis.
FIG. 6 is a graph showing the effect of Zinc and/or Fenretinide treatment on F508del-CFTR mediated secretion in the absence of VX-809. Ussing Chambers were used to measure F508del-CFTR functional expression as short-circuit current across polarized and basally permeabilized bronchial epithelial cells in response to forskolin (FSK) or forskolin+genistein (FSK+Gen). Cells were treated basally or not with 1.25 μM Fenretinide (Fen) and/or 12.5 μM Zinc (Zn) for 3 days. […]

T1 sequence (P13569 with tags, fused parts or gaps DEL508-508): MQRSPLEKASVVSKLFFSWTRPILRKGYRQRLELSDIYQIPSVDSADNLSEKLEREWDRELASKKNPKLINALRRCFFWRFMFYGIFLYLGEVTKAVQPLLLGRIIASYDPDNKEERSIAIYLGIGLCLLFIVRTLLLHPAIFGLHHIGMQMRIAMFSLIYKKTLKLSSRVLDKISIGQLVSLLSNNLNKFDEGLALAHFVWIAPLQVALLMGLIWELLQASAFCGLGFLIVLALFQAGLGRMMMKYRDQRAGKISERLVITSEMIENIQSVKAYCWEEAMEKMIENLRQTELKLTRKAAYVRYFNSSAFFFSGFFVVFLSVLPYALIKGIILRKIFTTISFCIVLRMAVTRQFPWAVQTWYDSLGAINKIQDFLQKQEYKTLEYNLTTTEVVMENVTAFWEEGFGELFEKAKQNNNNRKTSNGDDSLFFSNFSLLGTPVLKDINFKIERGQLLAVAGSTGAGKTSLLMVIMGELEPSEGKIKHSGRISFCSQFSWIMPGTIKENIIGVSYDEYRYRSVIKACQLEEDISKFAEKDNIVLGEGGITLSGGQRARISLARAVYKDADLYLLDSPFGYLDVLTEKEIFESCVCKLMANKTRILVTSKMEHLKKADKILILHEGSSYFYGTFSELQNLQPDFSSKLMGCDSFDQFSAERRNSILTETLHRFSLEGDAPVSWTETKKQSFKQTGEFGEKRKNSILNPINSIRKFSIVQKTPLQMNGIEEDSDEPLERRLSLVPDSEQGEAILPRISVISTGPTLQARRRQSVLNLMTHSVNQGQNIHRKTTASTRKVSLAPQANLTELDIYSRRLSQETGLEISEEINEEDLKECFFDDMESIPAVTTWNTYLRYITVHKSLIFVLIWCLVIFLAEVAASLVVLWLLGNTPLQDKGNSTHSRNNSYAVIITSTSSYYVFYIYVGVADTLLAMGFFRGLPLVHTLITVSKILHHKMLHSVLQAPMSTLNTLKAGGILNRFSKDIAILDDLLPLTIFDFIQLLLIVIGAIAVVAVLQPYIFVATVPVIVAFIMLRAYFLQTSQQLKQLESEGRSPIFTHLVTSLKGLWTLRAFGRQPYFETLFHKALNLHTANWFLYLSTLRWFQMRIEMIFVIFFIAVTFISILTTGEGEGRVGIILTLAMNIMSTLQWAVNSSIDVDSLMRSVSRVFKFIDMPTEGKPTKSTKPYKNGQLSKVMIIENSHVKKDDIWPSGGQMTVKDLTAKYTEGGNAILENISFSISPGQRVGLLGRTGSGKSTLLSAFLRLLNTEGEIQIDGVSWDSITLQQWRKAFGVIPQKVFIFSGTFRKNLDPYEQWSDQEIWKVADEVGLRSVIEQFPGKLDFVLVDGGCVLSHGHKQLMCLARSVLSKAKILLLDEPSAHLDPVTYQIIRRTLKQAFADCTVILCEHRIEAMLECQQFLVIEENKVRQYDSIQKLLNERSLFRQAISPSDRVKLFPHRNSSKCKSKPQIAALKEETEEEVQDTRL

Compound | DHA levels [3] | DHA/AA ratio [3] | CFTR clustering / platforms (degree of aggregation) at the plasma membrane [1] | further results
CN(C)CCC=C1c2ccccc2CCc2ccccc21 [Amitriptyline] |  |  |  | Induction of CFTR platform formation by fenretinide+thapsigargin ([1]; in the presence of Amitriptyline 13 μM for 40 min): inhibited
CC1=C(/C=C/C(C)=C/C=C/C(C)=C/C(=O)Nc2ccc(O)cc2)C(C)(C)CCC1 [fenretinide, all-trans-N-(4-hydroxyphenyl) retinamide] | significant increase | significant increase | did not affect CFTR clustering | cPLA2 activity ([2]; 1.25 μM fenretinide, 12, 24, 48 or 72 hours): decreased; F508del-CFTR channel function [4]: significant increase
C/C=C(/C)C(=O)O[C@H]1C(C)=C2[C@H]([C@@H]1OC(=O)CCCCCCC)[C@@](C)(OC(C)=O)C[C@H](OC(=O)CCC)[C@@]1(O)[C@H]2OC(=O)[C@@]1(C)O [thapsigargin] |  |  | induces some CFTR platforms | 
zinc sulfate | significant increase | significant increase |  | cPLA2 activity ([2]; 12.5 μM zinc sulfate in the absence of fenretinide, 72h): significantly increase; cPLA2 activity, effect of zinc added to fenretinide ([2]; 12.5 μM zinc sulfate with 1.25 μM fenretinide, 24h and 48h): potentiate the effect of fenretinide

Source: US11510945B2, “Compositions and methods for enhancing ion transporter activity and uses thereof” (THE ROYAL INSTITUTION FOR THE ADVANCEMENT OF …, priority 2018, dated 2022)
